Like-named read-outs stand apart in the source and are kept apart here.
Key:
Assay type in all cases: in vivo
[1] = test system: duck salad (Heteranthera limosa); assay: Test B flooded paddy test; settings: Heteranthera limosa, Flood, 1000 g ai/ha; scale 0 to 100; read-out: Plant response rating, Ducksalad
In short: (§1)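 Plants were grown to the 2-leaf stage before treatment, then kept in a greenhouse for 13 to 15 days. Injury was rated visually against untreated controls on a 0 to 100 scale, where 0 is no effect and 100 is complete control.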

rice (Oryza sativa) = assay: Test B flooded paddy test; settings: Oryza sativa, Flood, 1000 g ai/ha; scale 0 to 100; read-out: Plant response rating, Rice
In short: as §1

[2] = test system: umbrella sedge (Cyperus difformis); assay: Test B flooded paddy test; settings: Cyperus difformis, Flood, 1000 g ai/ha; scale 0 to 100; read-out: Plant response rating, Sedge, Umbrella
In short: as §1

[3] = test system: barnyardgrass (Echinochloa crus-galli); assay: Test B flooded paddy test; settings: Echinochloa crus-galli, Flood, 1000 g ai/ha; scale 0 (no effect) to 100 (complete control); read-out: Plant response rating, Barnyardgrass
In short: as §1

[4] = test system: velvetleaf (Abutilon theophrasti); assay: Test B pre/postemergence; settings: Abutilon theophrasti; for pest or weed control at 125 g/ha: 125 g ai/ha; for pest or weed control at 500 g/ha: 500 g ai/ha
In short: (§2)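 Under greenhouse conditions, seeded pots and young plants (1- to 4-leaf, 2 to 18 cm) were treated at the same time with test chemicals in a non-phytotoxic solvent mixture containing surfactant. Response was assessed visually after 13 to 15 days, from 0 (no effect) to 100 (complete control).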

[5] = test system: morningglory (Ipomoea coccinea); assay: Test B pre/postemergence; settings: Ipomoea; for pest or weed control at 125 g/ha: 125 g ai/ha; for pest or weed control at 500 g/ha: 500 g ai/ha
In short: as §2

[6] = test system: crabgrass (Digitaria sanguinalis); assay: Test B pre/postemergence; settings: Digitaria sanguinalis; for pest or weed control at 125 g/ha: 125 g ai/ha; for pest or weed control at 500 g/ha: 500 g ai/ha
In short: as §2

[7] = test system: lambsquarters (Chenopodium album); assay: Test B pre/postemergence; settings: Chenopodium album; for pest or weed control at 125 g/ha: 125 g ai/ha; for pest or weed control at 500 g/ha: 500 g ai/ha
In short: as §2

[8] = test system: pigweed (Amaranthus retroflexus); assay: Test B pre/postemergence; settings: Amaranthus retroflexus; for pest or weed control at 125 g/ha: 125 g ai/ha; for pest or weed control at 500 g/ha: 500 g ai/ha
In short: as §2

[9] = test system: Surinam grass (Brachiaria decumbens); assay: Test B pre/postemergence; settings: Urochloa decumbens; for pest or weed control at 125 g/ha: 125 g ai/ha; for pest or weed control at 500 g/ha: 500 g ai/ha
In short: as §2

[10] = test system: barnyardgrass (Echinochloa crus-galli); assay: Test B pre/postemergence; settings: Echinochloa crus-galli; for pest or weed control at 125 g/ha: 125 g ai/ha; for pest or weed control at 500 g/ha: 500 g ai/ha
In short: as §2

[11] = test system: giant foxtail (Setaria faberii); assay: Test B pre/postemergence; settings: Setaria faberi; for pest or weed control at 125 g/ha: 125 g ai/ha; for pest or weed control at 500 g/ha: 500 g ai/ha
In short: as §2

[12] = test system: wheat (Triticum aestivum); assay: Test B pre/postemergence; settings: Triticum aestivum; for plant injury at 125 g/ha: 125 g ai/ha; for plant injury at 500 g/ha: 500 g ai/ha
In short: as §2

[13] = test system: cocklebur (Xanthium strumarium); assay: Test B pre/postemergence; settings: Xanthium strumarium; for pest or weed control at 125 g/ha: 125 g ai/ha; for pest or weed control at 500 g/ha: 500 g ai/ha
In short: as §2

corn (Zea mays) = assay: Test B pre/postemergence; settings: Zea mays
In short: as §2

[14] = test system: blackgrass (Alopecurus myosuroides); assay: Test B postemergence; settings: Alopecurus myosuroides, post-emergence
In short: as §2

wild oat (Avena fatua) = assay: Test B postemergence; settings: Avena fatua, post-emergence
In short: as §2

COC(=O)c1nc(C(C)C)nc(N)c1Br [Compound 3]
50%: pest or weed control at 125 g/ha ([4]; post-emergence, Postemergence, scale 0 to 100 (0 no effect, 100 complete control), read-out: Velvetleaf plant response rating) | pest or weed control at 125 g/ha ([5]; pre-emergence, Preemergence, scale 0 to 100 (0 no effect, 100 complete control), read-out: Plant response rating, Morningglory) | pest or weed control at 500 g/ha ([6]; pre-emergence, Preemergence, scale 0 to 100 (0 no effect, 100 complete control), read-out: Crabgrass plant response rating) | pest or weed control at 500 g/ha ([14]; 500 g ai/ha, scale 0 to 100, read-out: Plant response rating, Blackgrass)
70%: pest or weed control at 500 g/ha ([4]; pre-emergence, Preemergence, scale 0 to 100 (0 no effect, 100 complete control), read-out: Velvetleaf plant response rating) | pest or weed control at 125 g/ha ([7]; pre-emergence, Preemergence, scale 0 to 100 (0 no effect, 100 complete control), read-out: Plant response rating, Lambsquarters) | pest or weed control at 125 g/ha ([13]; post-emergence, Postemergence, scale 0 to 100 (0 no effect, 100 complete control), read-out: Cocklebur plant response rating)
90%: pest or weed control at 500 g/ha ([7]; pre-emergence, Preemergence, scale 0 to 100 (0 no effect, 100 complete control), read-out: Lambsquarters plant response rating) | pest or weed control at 500 g/ha ([8]; post-emergence, Postemergence, scale 0 to 100, read-out: Plant response rating, Pigweed) | pest or weed control at 500 g/ha ([8]; pre-emergence, Preemergence, scale 0 to 100 (0 no effect, 100 complete control), read-out: Pigweed plant response rating)
100%: pest or weed control at 500 g/ha ([5]; post-emergence, Postemergence, scale 0 to 100, read-out: Plant response rating, Morningglory) | pest or weed control at 125 g/ha ([7]; post-emergence, Postemergence, scale 0 to 100 (0 no effect, 100 complete control), read-out: Lambsquarters plant response rating) | pest or weed control at 500 g/ha ([7]; post-emergence, Postemergence, scale 0 to 100, read-out: Plant response rating, Lambsquarters) | pest or weed control at 500 g/ha ([13]; post-emergence, Postemergence, scale 0 to 100, read-out: Plant response rating, Cocklebur)
30%: pest or weed control at 125 g/ha ([6]; post-emergence, Postemergence, scale 0 to 100 (0 no effect, 100 complete control), read-out: Crabgrass plant response rating) | pest or weed control at 500 g/ha ([9]; post-emergence, Postemergence, scale 0 to 100, read-out: Plant response rating, Surinam Grass) | pest or weed control at 500 g/ha (wild oat (Avena fatua); 500 g ai/ha, scale 0 to 100, read-out: Plant response rating, Oat, Wild)
0%: pest or weed control at 1000 g/ha [1] | plant injury at 1000 g/ha (rice (Oryza sativa)) | pest or weed control at 1000 g/ha [2] | pest or weed control at 1000 g/ha [3] | pest or weed control at 125 g/ha ([9]; pre-emergence, Preemergence, scale 0 to 100 (0 no effect, 100 complete control), read-out: Plant response rating, Surinam Grass) | pest or weed control at 125 g/ha ([10]; post-emergence, Postemergence, scale 0 to 100 (0 no effect, 100 complete control), read-out: Barnyardgrass plant response rating) | pest or weed control at 125 g/ha ([10]; pre-emergence, Preemergence, scale 0 to 100 (0 no effect, 100 complete control), read-out: Plant response rating, Barnyardgrass) | pest or weed control at 500 g/ha ([10]; pre-emergence, Preemergence, scale 0 to 100 (0 no effect, 100 complete control), read-out: Barnyardgrass plant response rating) | pest or weed control at 125 g/ha ([11]; pre-emergence, Preemergence, scale 0 to 100 (0 no effect, 100 complete control), read-out: Plant response rating, Foxtail, Giant) | pest or weed control at 500 g/ha ([11]; pre-emergence, Preemergence, scale 0 to 100 (0 no effect, 100 complete control), read-out: Foxtail, Giant plant response rating) | plant injury at 125 g/ha ([12]; pre-emergence, Preemergence, scale 0 to 100 (0 no effect, 100 complete control), read-out: Plant response rating, Wheat) | plant injury at 500 g/ha ([12]; pre-emergence, Preemergence, scale 0 to 100 (0 no effect, 100 complete control), read-out: Wheat plant response rating) | plant injury at 125 g/ha (corn (Zea mays); post-emergence, Postemergence, 125 g ai/ha, scale 0 to 100 (0 no effect, 100 complete control), read-out: Corn plant response rating) | Corn plant response rating (crop injury, 0 = no effect, 100 = complete kill) at 500 g/ha (corn (Zea mays); post-emergence, Postemergence, 500 g ai/ha, scale 0 to 100) | Corn plant response rating (crop injury, 0 = no effect, 100 = complete kill) at 125 g/ha (corn (Zea mays); pre-emergence, Preemergence, 125 g ai/ha, scale 0 to 100 (0 no effect, 100 complete control)) | plant injury at 500 g/ha (corn (Zea mays); pre-emergence, Preemergence, 500 g ai/ha, scale 0 to 100 (0 no effect, 100 complete control), read-out: Corn plant response rating)
10%: pest or weed control at 125 g/ha ([6]; pre-emergence, Preemergence, scale 0 to 100 (0 no effect, 100 complete control), read-out: Plant response rating, Crabgrass) | pest or weed control at 125 g/ha ([9]; post-emergence, Postemergence, scale 0 to 100 (0 no effect, 100 complete control), read-out: Surinam Grass plant response rating) | pest or weed control at 500 g/ha ([10]; post-emergence, Postemergence, scale 0 to 100, read-out: Plant response rating, Barnyardgrass) | plant injury at 125 g/ha ([12]; post-emergence, Postemergence, scale 0 to 100 (0 no effect, 100 complete control), read-out: Wheat plant response rating) | pest or weed control at 125 g/ha (wild oat (Avena fatua); 125 g ai/ha, scale 0 to 100 (0 no effect, 100 complete control), read-out: Oat, Wild plant response rating)
20%: pest or weed control at 500 g/ha ([9]; pre-emergence, Preemergence, scale 0 to 100 (0 no effect, 100 complete control), read-out: Surinam Grass plant response rating) | pest or weed control at 125 g/ha ([11]; post-emergence, Postemergence, scale 0 to 100 (0 no effect, 100 complete control), read-out: Foxtail, Giant plant response rating) | plant injury at 500 g/ha ([12]; post-emergence, Postemergence, scale 0 to 100, read-out: Plant response rating, Wheat) | pest or weed control at 125 g/ha ([14]; 125 g ai/ha, scale 0 to 100 (0 no effect, 100 complete control), read-out: Blackgrass plant response rating)
40%: pest or weed control at 125 g/ha ([4]; pre-emergence, Preemergence, scale 0 to 100 (0 no effect, 100 complete control), read-out: Plant response rating, Velvetleaf) | pest or weed control at 500 g/ha ([6]; post-emergence, Postemergence, scale 0 to 100, read-out: Plant response rating, Crabgrass) | pest or weed control at 500 g/ha ([11]; post-emergence, Postemergence, scale 0 to 100, read-out: Plant response rating, Foxtail, Giant)
80%: pest or weed control at 500 g/ha ([4]; post-emergence, Postemergence, scale 0 to 100, read-out: Plant response rating, Velvetleaf) | pest or weed control at 125 g/ha ([5]; post-emergence, Postemergence, scale 0 to 100 (0 no effect, 100 complete control), read-out: Morningglory plant response rating) | pest or weed control at 125 g/ha ([8]; post-emergence, Postemergence, scale 0 to 100 (0 no effect, 100 complete control), read-out: Pigweed plant response rating) | pest or weed control at 125 g/ha ([8]; pre-emergence, Preemergence, scale 0 to 100 (0 no effect, 100 complete control), read-out: Plant response rating, Pigweed) | pest or weed control at 125 g/ha ([13]; pre-emergence, Preemergence, scale 0 to 100 (0 no effect, 100 complete control), read-out: Plant response rating, Cocklebur) | pest or weed control at 500 g/ha ([13]; pre-emergence, Preemergence, scale 0 to 100 (0 no effect, 100 complete control), read-out: Cocklebur plant response rating)
60%: pest or weed control at 500 g/ha ([5]; pre-emergence, Preemergence, scale 0 to 100 (0 no effect, 100 complete control), read-out: Morningglory plant response rating)

From patent publication US8802597B2, “Herbicidal pyrimidines” (E I du Pont de Nemours and Company, priority 2003, dated 2014)
